Source: patent US20210045385A1, “PYRIDAZINONE-SUBSTITUTED KETOXIMES AS HERBICIDES” (FMC Corporation, priority 2018, published 2021)

Key:
Format in all cases: in vivo
[1] = test system: barnyardgrass (Echinochloa crus-galli); experiment: Test C postemergence, visual plant response rating
How it was run: (§1)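 Visual injury on a 0 (no effect) to 100 (complete control) scale versus untreated controls, scored approximately 10 d after treatment under greenhouse conditions. Treatments used surfactant-containing non-phytotoxic solvent formulations, sprayed onto loam–sand soil preemergence or onto one- to two-leaf plants 2–10 cm tall postemergence.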

[2] = test system: blackgrass (Alopecurus myosuroides); experiment: Test C postemergence, visual plant response rating
How it was run: as §1

kochia (Bassia scoparia) [3] = experiment: Test C postemergence, visual plant response rating
How it was run: as §1

[4] = test system: ragweed (common ragweed, Ambrosia artemisiifolia); experiment: Test C postemergence, visual plant response rating
How it was run: as §1

[5] = test system: galium (catchweed bedstraw, Galium aparine); experiment: Test C postemergence, visual plant response rating
How it was run: as §1

[6] = test system: Italian ryegrass (Lolium mutiflorum); experiment: Test C postemergence, visual plant response rating
How it was run: as §1

[7] = test system: foxtail, giant (giant foxtail, Setaria faberi); experiment: Test C postemergence, visual plant response rating
How it was run: as §1

[8] = test system: pigweed (Amaranthus retroflexus); experiment: Test C postemergence, visual plant response rating
How it was run: as §1

[9] = test system: wheat (Triticum aestivum); experiment: Test C postemergence, visual plant response rating
How it was run: as §1

corn (Zea mays) = experiment: Test C postemergence, visual plant response rating
How it was run: as §1

[10] = test system: barnyardgrass (Echinochloa crus-galli); experiment: Test D flooded paddy test, visual plant response rating; conditions: 250 g ai/ha, scale 0 to 100 (0 no effect, 100 complete control), 13 to 15 d
How it was run: (§2)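 Visual injury scores, 0 (no effect) to 100 (complete control), were assigned after 13 to 15 d in the greenhouse by comparison with controls. Test compounds had been added to paddy water covering soil by 3 cm at the 2-leaf stage.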

[11] = test system: sedge umbrella (small-flower umbrella sedge, Cyperus difformis); experiment: as above; conditions: 250 g ai/ha, scale 0 to 100 (0 no effect, 100 complete control), 13 to 15 d
How it was run: as §2

[12] = test system: duck salad (Heteranthera limosa); experiment: as above; conditions: 250 g ai/ha, scale 0 to 100 (0 no effect, 100 complete control), 13 to 15 d
How it was run: as §2

rice (Oryza sativa) = experiment: as above; conditions: 250 g ai/ha, scale 0 to 100 (0 no effect, 100 complete control), 13 to 15 d
How it was run: as §2

[13] = test system: barnyardgrass (Echinochloa crus-galli); experiment: Test C preemergence, visual plant response rating
How it was run: as §1

kochia (Bassia scoparia) [14] = experiment: Test C preemergence, visual plant response rating
How it was run: as §1

[15] = test system: ragweed (common ragweed, Ambrosia artemisiifolia); experiment: Test C preemergence, visual plant response rating
How it was run: as §1

[16] = test system: Italian ryegrass (Lolium mutiflorum); experiment: Test C preemergence, visual plant response rating
How it was run: as §1

[17] = test system: foxtail, giant (giant foxtail, Setaria faberi); experiment: Test C preemergence, visual plant response rating
How it was run: as §1

[18] = test system: pigweed (Amaranthus retroflexus); experiment: Test C preemergence, visual plant response rating
How it was run: as §1

[19] = Test C, postemergence, 125 g ai/ha
[20] = Test C, 31 g ai/ha, 0 is no effect, 100 is complete control
[21] = Test C, postemergence, 31 g ai/ha
[22] = Test C, 125 g ai/ha, 0 is no effect, 100 is complete control

SMILES	Barnyardgrass plant response rating (0 to 100 scale) [1, 19]	Blackgrass plant response rating (0 to 100 scale) [2, 19]	Kochia plant response rating (0 to 100 scale) (kochia (Bassia scoparia) [3]; [19])	Ragweed plant response rating (0 to 100 scale) ([4]; Postemergence, 31 g ai/ha)	Ragweed plant response rating (0 to 100 scale) [4, 19]	Galium plant response rating (0 to 100 scale) [5, 19]	Ryegrass, Italian plant response rating (0 to 100 scale) ([6]; Postemergence, 31 g ai/ha)	Ryegrass, Italian plant response rating (0 to 100 scale) [6, 19]	Foxtail, Giant plant response rating (0 to 100 scale) [7, 19]	Pigweed plant response rating (0 to 100 scale) ([8]; Postemergence, 31 g ai/ha)	Pigweed plant response rating (0 to 100 scale) [8, 19]	Wheat plant response rating (0 to 100 scale) ([9]; Postemergence, 31 g ai/ha)	Wheat plant response rating (0 to 100 scale) [9, 19]	Corn plant response rating (0 to 100 scale) (corn (Zea mays); [19])	Plant response rating, Barnyardgrass (Flood) [10]	Plant response rating, Sedge, Umbrella (Flood) [11]	Plant response rating, Ducksalad (Flood) [12]	Plant response rating, Rice (Flood) (rice (Oryza sativa))	Barnyardgrass plant response rating (0 to 100 scale) [13, 20]	Kochia plant response rating (0 to 100 scale) (kochia (Bassia scoparia) [14]; [20])	other results
CON=C(c1cc(Cl)cc(OC)c1)c1c(O)c(C)nn(C)c1=O [Compound 175]	70	30	100	80	90	100	50	70	80	50	70	0	0	20	0	0	0	0	50	40	Barnyardgrass plant response rating (0 to 100 scale) ([1]; Postemergence, 31 g ai/ha): 50; Blackgrass plant response rating (0 to 100 scale) ([2]; Postemergence, 31 g ai/ha): 20; Kochia plant response rating (0 to 100 scale) (kochia (Bassia scoparia) [3]; Postemergence, 31 g ai/ha): 80; Galium plant response rating (0 to 100 scale) ([5]; Postemergence, 31 g ai/ha): 90; Foxtail, Giant plant response rating (0 to 100 scale) ([7]; Postemergence, 31 g ai/ha): 50; Corn plant response rating (0 to 100 scale) (corn (Zea mays); Postemergence, 31 g ai/ha): 10; Barnyardgrass plant response rating (0 to 100 scale) ([13]; 125 g ai/ha): 70; Kochia plant response rating (0 to 100 scale) (kochia (Bassia scoparia) [14]; 125 g ai/ha): 80; Ragweed plant response rating (0 to 100 scale) ([15]; 125 g ai/ha): 100; Ragweed plant response rating (0 to 100 scale) [15, 20]: 40; Ryegrass, Italian plant response rating (0 to 100 scale) ([16]; 125 g ai/ha): 50; Ryegrass, Italian plant response rating (0 to 100 scale) [16, 20]: 30; Foxtail, Giant plant response rating (0 to 100 scale) ([17]; 125 g ai/ha): 70; Foxtail, Giant plant response rating (0 to 100 scale) [17, 20]: 30; Pigweed plant response rating (0 to 100 scale) ([18]; 125 g ai/ha): 30; Pigweed plant response rating (0 to 100 scale) [18, 20]: 0
C#CCO/N=C(/c1cc(C)cc(Cl)c1)c1c(O)c(C)nn(C)c1=O [Compound 154]	90	90	70	70	90	100	70	100	90	30	100	30	90	40	0	0	0	0	40	0	Barnyardgrass plant response rating (0 to 100 scale) [1, 21]: 50; Blackgrass plant response rating (0 to 100 scale) [2, 21]: 50; Kochia plant response rating (0 to 100 scale) (kochia (Bassia scoparia) [3]; [21]): 60; Galium plant response rating (0 to 100 scale) [5, 21]: 90; Foxtail, Giant plant response rating (0 to 100 scale) [7, 21]: 80; Corn plant response rating (0 to 100 scale) (corn (Zea mays); [21]): 0; Barnyardgrass plant response rating (0 to 100 scale) ([13]; 125 g ai/ha): 90; Kochia plant response rating (0 to 100 scale) (kochia (Bassia scoparia) [14]; 125 g ai/ha): 90; Ragweed plant response rating (0 to 100 scale) ([15]; 125 g ai/ha): 80; Ragweed plant response rating (0 to 100 scale) [15, 20]: 40; Ryegrass, Italian plant response rating (0 to 100 scale) ([16]; 125 g ai/ha): 100; Ryegrass, Italian plant response rating (0 to 100 scale) [16, 20]: 40; Foxtail, Giant plant response rating (0 to 100 scale) ([17]; 125 g ai/ha): 100; Foxtail, Giant plant response rating (0 to 100 scale) [17, 20]: 60; Pigweed plant response rating (0 to 100 scale) ([18]; 125 g ai/ha): 90; Pigweed plant response rating (0 to 100 scale) [18, 20]: 40
CCO/N=C(\c1c(O)cnn(C)c1=O)c1ccc(F)c2ccccc12 [Compound 269]	0	30	30	10	40	80	0	60	40	50	60	0	0	20	0	0	0	0	0	0	Barnyardgrass plant response rating (0 to 100 scale) ([1]; Postemergence, 31 g ai/ha): 0; Blackgrass plant response rating (0 to 100 scale) ([2]; Postemergence, 31 g ai/ha): 0; Kochia plant response rating (0 to 100 scale) (kochia (Bassia scoparia) [3]; Postemergence, 31 g ai/ha): 0; Galium plant response rating (0 to 100 scale) ([5]; Postemergence, 31 g ai/ha): 50; Foxtail, Giant plant response rating (0 to 100 scale) ([7]; Postemergence, 31 g ai/ha): 10; Corn plant response rating (0 to 100 scale) (corn (Zea mays); Postemergence, 31 g ai/ha): 0; Barnyardgrass plant response rating (0 to 100 scale) [13, 22]: 0; Kochia plant response rating (0 to 100 scale) (kochia (Bassia scoparia) [14]; [22]): 0; Ragweed plant response rating (0 to 100 scale) [15, 20]: 0; Ragweed plant response rating (0 to 100 scale) [15, 22]: 0; Ryegrass, Italian plant response rating (0 to 100 scale) [16, 20]: 0; Ryegrass, Italian plant response rating (0 to 100 scale) [16, 22]: 10; Foxtail, Giant plant response rating (0 to 100 scale) [17, 20]: 0; Foxtail, Giant plant response rating (0 to 100 scale) [17, 22]: 30; Pigweed plant response rating (0 to 100 scale) [18, 20]: 0; Pigweed plant response rating (0 to 100 scale) [18, 22]: 10
